From publication PMC6136390, “Coptisine-induced inhibition of Helicobacter pylori: elucidation of specific mechanisms by probing urease active site and its maturation process” (Journal of Enzyme Inhibition and Medicinal Chemistry, 2018) come the findings set out here.

Molecules are shown by their SMILES. Read-outs that look alike come from different tables or passages of the source.

This assay relates to H. pylori strains. In words: Minimal inhibitory concentration assay (agar dilution). The class given is cell-based, Helicobacter pylori. The text has this:
Fourteen H. pylori strains were used in this study. NCTC 11637 and NCTC 26695 strains were purchased from American Type Culture Collection. Sydney Strain-1 (SS1) was kindly provided by Prof. Richard Ferrero of Monash University, Australia. Clinical isolate ICDC 111001 was provided by Prof. Zhang Jian-zhong of the Chinese Center for Disease Control and Prevention, China. Ten clinical isolates (Hp1868, Hp1869, Hp1870, Hp1871, Hp1872, Hp1873, Hp1874, Hp1875, Hp1876, and Hp1877) were obtained from Renji Hospital, Shanghai Jiaotong University.
All strains were cultured in Columbia agar base containing 7% sheep blood at 37 °C in a micro-aerophilic environment (5% O2, 10% CO2, and 85% N2). After 3 days, H. pylori was scraped and suspended in phosphate buffered saline (PBS). Turbidimetry was employed to adjust the concentrations of different H. pylori strains (turbidity equivalent to 1.0 McFarland standard). Crude HPU was obtained according to the method described by Matsubara et al.[42]
In this study, different concentrations (12.5, 25, 50, and 100 μg/mL) of berberine, palmatine, epiberberine, jatrorrhizine, and coptisine were used to evaluate antimicrobial activity against the standard H. pylori strain NCTC 11637. The agar dilution method was then used to analyse the antibacterial effects of coptisine against two H. pylori standard strains (SS1 and NCTC 26695) and eleven clinical isolates (ICDC 111001, HP 1868, HP 1869, HP 1870, HP 1871, HP 1872, HP 1873, HP 1874, HP 1875, HP 1876, and HP 1877). In this assay, 100 μL of H. pylori suspension (McFarland = 1.0) was added to the test compound-containing or DMSO-containing (control) Columbia blood agar plate. CLR and MET were used as positive controls in this experiment. Minimum inhibitory concentration (MIC) was defined as the lowest concentration at which no strain growth was observed by visual examination after 3 days. This experiment was repeated twice.
On the technique in general: In agar dilution, organisms are placed on agar that contains the substance at set levels.

As to `c1c2c(cc3c1OCO3)-c1cc3ccc4c(c3c[n+]1CC2)OCO4` [Coptisine], the MIC is 25 mg/L (Helicobacter pylori, NCTC11637, pH 7.2, standard strain NCTC 11637, pH 7.2); 25 mg/L (Helicobacter pylori, NCTC26695, strain NCTC 26695, pH = 7.2); 50 mg/L (Helicobacter pylori, clinical isolate HP 1868, pH = 7.2); 50 mg/L (Helicobacter pylori, clinical isolate HP 1869 (MET resistance), pH = 7.2); 25 mg/L (Helicobacter pylori, clinical isolate HP 1870 (CLR and MET resistance), pH = 7.2); 25 mg/L (Helicobacter pylori, clinical isolate HP 1871 (MET resistance), pH = 7.2). Besides, the MIC reads like this: (Helicobacter pylori, clinical isolate HP 1872, pH = 7.2) 25 mg/L; (Helicobacter pylori, clinical isolate HP 1873, pH = 7.2) 50 mg/L; (Helicobacter pylori, clinical isolate HP 1874, pH = 7.2) 50 mg/L; (Helicobacter pylori, clinical isolate HP 1875, pH = 7.2) 50 mg/L; (Helicobacter pylori, clinical isolate HP 1876 (CLR and MET resistance), pH = 7.2) 50 mg/L; (Helicobacter pylori, clinical isolate HP 1877, pH = 7.2) 50 mg/L. The MIC is 25 mg/L (Helicobacter pylori, clinical isolate ICDC 111001, pH = 7.2); 25 to 50 mg/L (Helicobacter pylori, read-out: MICs against eleven clinical isolates, eleven clinical isolates from three sites in China); 25 mg/L (Helicobacter pylori, strain SS1, pH = 7.2); 50 mg/L (clinical isolate HP 1869 (MET resistance), pH = 7.2); 25 mg/L (clinical isolate HP 1870 (CLR and MET resistance), pH = 7.2); 25 mg/L (clinical isolate HP 1871 (MET resistance), pH = 7.2). For the same compound, the MIC is, setting by setting: (clinical isolate HP 1876 (CLR and MET resistance), pH = 7.2) 50 mg/L; (standard strain NCTC 11637, pH 7.2) 25 mg/L; (strain NCTC 26695, pH = 7.2) 25 mg/L; (strain SS1, pH = 7.2) 25 mg/L.
